# Test results from patent publication US6518423B1, “Benzopiperidine derivatives” (Eisai Co., Ltd., priority 1996, dated 2003).
row,melting point,Structure (SMILES)
1,> 298 °C,Cc1c(C(N)=O)ncn1Cc1ccc2c(c1)Nc1nccnc1S2
2,243 to 244 °C,O=C(O)/C=C/c1nccn1Cc1ccc2c(c1)Nc1nccnc1S2
3,211 to 212 °C,c1cnn(Cc2ccc3c(c2)Nc2nccnc2S3)c1
4,249 to 251 °C,C/C(=C\C1C2(C)CCCC1(C)CN(Cc1ccc3c(c1)Nc1nccnc1S3)C2)C(=O)O (centres unmarked)
5,185 to 187 °C,O=C(O)C(F)C1C2CCCC1CN(Cc1ccc3c(c1)Nc1nccnc1S3)C2 (centres unmarked)
6,155 to 158 °C,O=C(O)CC1CC2CCC(C1)N2Cc1ccc2c(c1)Nc1nccnc1S2 (centres unmarked)
7,252 to 254 °C,NC(Cc1ccc2c(c1)Nc1nccnc1S2)=NO
8,219 to 220 °C,CCOC(=O)C(C)CCC1CCN(C(=N)Cc2ccc3c(c2)Nc2nccnc2S3)CC1.Cl (centres unmarked)
9,215 to 218 °C,CN(C)S(=O)(=O)NC1CCN(C(=N)Cc2ccc3c(c2)Nc2nccnc2S3)CC1.Cl
10,212 to 214 °C,CC(=O)NC1CCN(Cc2ccc3c(c2)Nc2nccnc2S3)CC1
11,194 to 196 °C,COC(=O)CNS(=O)(=O)NC1CCN(Cc2ccc3c(c2)Nc2nccnc2S3)CC1
12,119 to 122 °C,CS(=O)(=O)/N=C/NC1CCN(Cc2ccc3c(c2)Nc2nccnc2S3)CC1
13,241 to 243 °C,CS(=O)(=O)NC1CCN(Cc2ccc3c(c2)Nc2nccnc2O3)CC1
14,216 to 218 °C,CNS(=O)(=O)NC1CCN(Cc2ccc3c(c2)Nc2ncccc2S3)CC1
15,168 to 172 °C,c1cnc2c(n1)Nc1cc(CN3CCc4ccoc4C3)ccc1S2
16,238 °C (dec.),C1=NCCCN1Cc1ccc2c(c1)Nc1nccnc1S2.Cl
17,186 to 188 °C,O=C1CCN(Cc2ccc3c(c2)Nc2nccnc2S3)CC1
18,265 to 271 °C (dec.),N=C(N)N1CCN(Cc2ccc3c(c2)Nc2nccnc2S3)CC1
19,121 to 124 °C,O=C(O)CCCN1CCC(NCc2ccc3c(c2)Nc2nccnc2S3)CC1
20,240 to 243 °C,CC(C(=O)O)C1CCN(Cc2ccc3c(c2)Nc2nccnc2S3)CC1 (centres unmarked)

row,melting point,Structure (SMILES)
1,113 to 115 °C,CC(CCC1CCN(Cc2ccc3c(c2)Nc2ncccc2S3)CC1)C(=O)O (centres unmarked)
2,238 to 240 °C,CC(CCC1CCN(Cc2ccc3c(c2)Nc2nccnc2O3)CC1)C(=O)O (centres unmarked)
3,272 to 275 °C,CC(C)(CC(=O)O)C1CCN(Cc2ccc3c(c2)Nc2nccnc2S3)CC1
4,54 to 55 °C,O=C(O)C1CCN(S(=O)(=O)NC2CCN(Cc3ccc4c(c3)Nc3nccnc3S4)CC2)CC1
5,195 to 196 °C,O=C(O)CNS(=O)(=O)NC1CCN(Cc2ccc3c(c2)Nc2nccnc2S3)CC1
6,226 to 227 °C,CCOC1(CC(=O)O)CC2(CCN(Cc3ccc4c(c3)Nc3nccnc3S4)CC2)C1
7,251 to 252 °C,CC(C(=O)O)=C1CC2(CCN(Cc3ccc4c(c3)Nc3nccnc3S4)CC2)C1
8,178 to 180 °C,O=C(O)C1CC2(CCN(Cc3ccc4c(c3)Nc3nccnc3S4)CC2)O1 (centres unmarked)
9,146 to 148 °C,O=C(O)COCC1CCN(Cc2ccc3c(c2)Nc2nccnc2S3)CC1
10,221 to 222 °C,CC(CCC1CCN(Cc2ccc3c(c2)Sc2nccnc2N3)CC1)C(=O)O (centres unmarked)
11,222 to 226 °C,O=C(O)C(=O)NC1CCN(Cc2ccc3c(c2)Nc2nccnc2S3)CC1
12,146 °C (dec.),O=C(O)C1CCC2(CC1)CCN(Cc1ccc3c(c1)Nc1nccnc1S3)C2 (centres unmarked)
13,91 to 93 °C,C/C(=C\CC1CCN(Cc2ccc3c(c2)Nc2nccnc2S3)CC1)C(=O)O
14,98 to 99 °C,O=C(O)C(O)C1CCN(Cc2ccc3c(c2)Nc2nccnc2S3)CC1 (centres unmarked)
15,178 to 180 °C,O=C(O)C1=CCCN(Cc2ccc3c(c2)Nc2nccnc2S3)C1
16,260 to 262 °C,O=C(O)C1(c2ccc(O)cc2)CCN(Cc2ccc3c(c2)Nc2nccnc2S3)CC1
17,207 to 210 °C,O=C(O)CNC(=O)NC1CCN(Cc2ccc3c(c2)Nc2nccnc2S3)CC1
18,142 to 146 °C,O=C(O)CC1CCN(Cc2ccc3c(c2)Nc2nccnc2S3)CC1
19,130 to 132 °C,CC(C)(O)C(=O)CC(SCC(=O)O)C1CCN(Cc2ccc3c(c2)Nc2nccnc2S3)CC1 (centres unmarked)
20,108 to 113 °C,O=C(O)COCCC1C2CCCC1CN(Cc1ccc3c(c1)Nc1nccnc1S3)C2 (centres unmarked)

# Continued, molecule first:
row,Structure (SMILES),melting point
1,O=S(=O)(NCCc1cn(Cc2ccc3c(c2)Nc2nccnc2S3)cn1)c1ccccc1,127 to 130 °C
2,O=C(NCCc1cn(Cc2ccc3c(c2)Nc2nccnc2S3)cn1)c1ccccc1,231 to 233 °C
3,Brc1nccn1Cc1ccc2c(c1)Nc1nccnc1S2,256 to 258 °C
4,c1ccc(Cc2nccn2Cc2ccc3c(c2)Nc2nccnc2S3)nc1,216 to 219 °C
5,CCOC(=O)c1c(C)ncn1Cc1ccc2c(c1)Nc1nccnc1S2,194 to 196 °C
6,O=C(O)c1ccc(-c2cn(Cc3ccc4c(c3)Nc3nccnc3S4)cn2)cc1,264 to 266 °C
7,CC/C(=C\c1ncn(Cc2ccc3c(c2)Nc2nccnc2S3)c1C)C(=O)O,> 288 °C (dec.)
8,CCCCCCCCC/C(=C\c1ncn(Cc2ccc3c(c2)Nc2nccnc2S3)c1C)C(=O)O,194 to 197 °C
9,CS(=O)(=O)Nc1ccc(-c2cn(Cc3ccc4c(c3)Nc3nccnc3S4)cn2)cc1,253 to 255 °C
10,CC(=O)Nc1ccc(-c2cn(Cc3ccc4c(c3)Nc3nccnc3S4)cn2)cc1,261 to 263 °C
11,Cc1oncc1C(=O)NCCc1cn(Cc2ccc3c(c2)Nc2nccnc2S3)cn1,165 to 167 °C
12,Cc1c(CO)ncn1Cc1ccc2c(c1)Nc1nccnc1S2,> 270 °C (dec.)
13,c1cnc2c(c1)ncn2Cc1ccc2c(c1)Nc1nccnc1S2,249 to 251 °C
14,c1csc(Cc2ccc3c(c2)Nc2nccnc2S3)n1,160 to 161 °C
15,OC(c1ccc2c(c1)Nc1nccnc1S2)c1nccs1 (centres unmarked),110 to 114 °C
16,OC(c1ccc2c(c1)Nc1nccnc1S2)c1cc(Br)ccc1F (centres unmarked),202 to 203 °C
17,FC(c1cccnc1)c1ccc2c(c1)Nc1nccnc1S2 (centres unmarked),157 to 159 °C
18,OC(C#Cc1ccccc1)c1ccc2c(c1)Nc1nccnc1S2 (centres unmarked),192 to 194 °C
19,CCCCC#CC(O)c1ccc2c(c1)Nc1nccnc1S2 (centres unmarked),116 to 118 °C
20,CN(Cc1ccc2c(c1)Nc1nccnc1S2)c1ccccc1,172 to 174 °C
21,NS(=O)(=O)c1ccc(CNCc2ccc3c(c2)Nc2nccnc2S3)cc1,210 to 212 °C

row,Structure (SMILES),melting point
1,CN(CCCCCC(=O)O)Cc1ccc2c(c1)Nc1nccnc1S2,191 to 193 °C
2,Cl.O=C(O)Cc1ccc(NCc2ccc3c(c2)Nc2nccnc2S3)cc1,252 to 256 °C
3,O=C(Nc1ccccc1)c1ccc2c(c1)Nc1nccnc1S2,281 to 282 °C
4,CN(C)CCCNC(=O)Cc1ccc2c(c1)Nc1nccnc1S2,145 to 148 °C
5,CCCCNC(=O)OCc1ccc2c(c1)Nc1nccnc1S2,169 to 171 °C
6,Cc1ncnc2c1ncn2Cc1ccc2c(c1)Nc1nccnc1S2,276 to 278 °C
7,O=c1[nH]cnc2c1ncn2Cc1ccc2c(c1)Nc1nccnc1S2,> 275 °C
8,C[C@@H]1CN(c2ncnc3c2ncn3Cc2ccc3c(c2)Nc2nccnc2S3)C[C@H](C)O1,227 to 229 °C
9,c1ccc(C2CCN(c3ncnc4c3ncn4Cc3ccc4c(c3)Nc3nccnc3S4)CC2)cc1,239 to 241 °C
10,N#CN=C(N)c1ncnc2c1ncn2Cc1ccc2c(c1)Nc1nccnc1S2,> 290 °C
11,CS(=O)(=O)/N=C/N1CCN(C(=N)Cc2ccc3c(c2)Nc2nccnc2S3)CC1.Cl,215 to 218 °C
12,CN(C)C(Cc1ccc2c(c1)Nc1nccnc1S2)=NC#N,247 to 249 °C (dec.)
13,N#CN=C(Cc1ccc2c(c1)Nc1nccnc1S2)NCCCn1ccnc1,205 to 208 °C
14,C(=N\c1ccccn1)/NCc1ccc2c(c1)Nc1nccnc1S2,137 to 142 °C
15,CN(C=NC#N)Cc1ccc2c(c1)Nc1nccnc1S2,197 to 198 °C
16,c1ccc2c(c1)CCCN2Cc1ccc2c(c1)Nc1nccnc1S2,208 to 210 °C
17,c1ccc2c(c1)Nc1nccnc1N2,215 to 217 °C
18,C=CCN1c2ccccc2Nc2nccnc21,173 to 175 °C
19,CC(C)(C)OC(=O)CN1c2ccccc2Nc2nccnc21,199 to 201 °C
20,OCC(O)CN1c2ccccc2Nc2nccnc21 (centres unmarked),191 to 194 °C
21,COCOc1ccc2c(c1)Nc1nccnc1N2C,197 to 198 °C

row,Structure (SMILES),melting point
1,CCOC(=O)c1ccc2c(c1)Nc1nccnc1N2C,239 to 242 °C
2,O=C(O)CN1c2ccccc2Nc2nccnc21,210 to 212 °C
3,CCCN1c2ccccc2Nc2nccnc21,190 to 192 °C
4,CN1c2ccc(CN)cc2Nc2nccnc21,117 to 122 °C
5,CS(=O)(=O)NCCN1c2ccccc2Nc2nccnc21,218 to 222 °C
6,CCOC(=O)CC(=O)c1ccc2c(c1)Nc1nccnc1N2C,88 to 89 °C
7,c1ccc2ncc(NCc3ccc4c(c3)Nc3nccnc3S4)cc2c1,160 to 164 °C
8,c1cncc(CNCc2ccc3c(c2)Nc2nccnc2S3)c1,104 to 106 °C
9,OCc1cc(NCc2ccc3c(c2)Nc2nccnc2S3)ccn1,156 to 160 °C
10,c1ccc(CNc2ccc(NCc3ccc4c(c3)Nc3nccnc3S4)cn2)cc1,208 to 211 °C
11,COc1ccc(NCc2ccc3c(c2)Nc2nccnc2S3)cn1,168 to 172 °C
12,c1ccc(Oc2ccc(NCc3ccc4c(c3)Nc3nccnc3S4)cn2)cc1,162 to 165 °C
13,c1ccc(Cc2ccc(NCc3ccc4c(c3)Nc3nccnc3S4)cn2)cc1,162 to 164 °C
14,OCCSc1ccc(NCc2ccc3c(c2)Nc2nccnc2S3)cn1,138 to 142 °C
15,O=C(O)COc1ccc(NCc2ccc3c(c2)Nc2nccnc2S3)cn1,170 °C
16,O=C(O)CSc1ccc(NCc2ccc3c(c2)Nc2nccnc2S3)cn1,114 to 116 °C
17,Brc1ccc(NCc2ccc3c(c2)Nc2nccnc2S3)nc1,265 to 268 °C
18,CCNC(=O)N(Cc1ccc2c(c1)Nc1nccnc1S2)c1cccnc1,210 to 212 °C
19,O=S(=O)(c1ccccc1)N(Cc1ccc2c(c1)Nc1nccnc1S2)c1cccnc1,205 to 260 °C
